These results are taken from patent publication US20040242459A1 (priority 2001, published 2004).

For assay [1], the target named is T1, recombinant human PPARδ (GST-PPARδ) (Homo sapiens, UniProt Q03181).
T1 construct: The full length human cDNAs for PPARδ and PPARα were subcloned into the pGEX-KT expression vector; made in house; host or cells: E. coli
T1 sequence (Q03181 1-441): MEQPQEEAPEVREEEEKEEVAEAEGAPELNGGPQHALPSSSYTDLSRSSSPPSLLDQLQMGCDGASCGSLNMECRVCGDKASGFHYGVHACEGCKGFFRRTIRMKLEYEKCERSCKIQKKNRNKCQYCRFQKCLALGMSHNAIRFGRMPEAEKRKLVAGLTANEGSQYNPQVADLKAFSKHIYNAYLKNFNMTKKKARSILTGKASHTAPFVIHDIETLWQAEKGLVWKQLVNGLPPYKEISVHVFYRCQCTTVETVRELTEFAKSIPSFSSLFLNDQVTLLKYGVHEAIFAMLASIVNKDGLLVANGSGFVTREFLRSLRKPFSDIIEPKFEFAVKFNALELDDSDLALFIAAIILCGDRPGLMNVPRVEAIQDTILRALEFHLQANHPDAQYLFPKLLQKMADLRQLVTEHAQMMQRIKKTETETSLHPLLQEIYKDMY
The experiment in a line: Scintillation Proximity Assay, displacement of [3H2]Compound B from PPARδ. The class given is binding. The conditions noted are these: human PPARδ binding; read-out: IC50 (μM: SPA or BND) Delta. From the text: As an approach to identifying human PPAR agonists, a Scintillation Proximity Assay was used to characterize PPAR-γ, PPAR-δ, and PPAR-α ligands.
Human PPARγ2, human PPARδ and human PPARα were expressed as GST-fusion proteins in E. coli. The full length human cDNA for PPARγ 2 was subcloned into the pGEX-2 T expression vector (Amersham Pharmacia Biotech, Inc.). The full length human cDNAs for PPARδ and PPARα were subcloned into the pGEX-KT expression vector (Amersham Pharmacia Biotech, Inc.). E. coli containing the respective plasmids were propagated, induced, and harvested by centrifugation. The resuspended pellet was broken in a French press and debris removed by centrifugation. Recombinant human PPAR receptors were purified by affinity chromatography on glutathione sepharose. After application to the column, and one wash, receptor was eluted with glutathione. Glycerol (10%) was added to stabilize the receptor and aliquots were stored at −80° C.
After incubation for ˜16 h at 15° C. with shaking, the assay plates were counted in a Packard Topcount with quench correction.
(In general: Scintillation proximity formats need no separation of bound from free tracer.)

The target of a further assay is T2, hPPARδ/GAL4 (Homo sapiens, UniProt Q03181).
T2 construct: expressed in transfected cells; host or cells: COS-1 cells
In words: Gal-4 hPPAR transactivation assay in COS-1 cells (delta). The class given is cell-based. The conditions noted are these: two values separated by a slash in some cells. How it is done: (§1) The chimeric receptor expression constructs, pcDNA3-hPPARγ/GAL4, pcDNA3-hPPARδ/GAL4, pcDNA3-hPPARα/GAL4 were prepared by inserting the yeast GAL4 transcription factor DBD adjacent to the ligand binding domains (LBDs) of hPPARγ, hPPARδ, hPPARα, respectively. The reporter construct, pUAS(5×)-tk-luc was generated by inserting 5 copies of the GAL4 response element upstream of the herpes virus minimal thymidine kinase promoter and the luciferase reporter gene. pCMV-lacZ contains the galactosidase Z gene under the regulation of the cytomegalovirus promoter. COS-1 cells were seeded at 12×10^3 cells/well in 96 well cell culture plates in high glucose Dulbecco's modified Eagle medium (DMEM) containing 10% charcoal stripped fetal calf serum (Gemini Bio-Products, Calabasas, Calif.), nonessential amino acids, 100 units/ml Penicillin G and […] Streptomycin sulfate at 37° C. in a humidified atmosphere of 10% CO2. After 24 h, transfections were performed with Lipofectamine (GIBCO BRL, Gaithersburg, Md.) according to the instructions of the manufacturer. […] Luciferase activity in cell extracts was determined using Luciferase Assay Buffer (Promega, Madison, Wis.) in an ML3000 luminometer (Dynatech Laboratories, Chantilly, Va.). β-galactosidase activity was determined using β-D-galactopyranoside (Calbiochem, San Diego, Calif.).

The subject of assay [2] is PPAR-α, PPAR-γ and PPAR-δ. The experiment in a line: Classification of ligands according to their PPAR activity (Table A). The conditions noted are these: classification based on IC50 and EC50 data of Table B. On the set-up: species or system human.
Another assay deals with T3, hPPARγ/GAL4 (Homo sapiens, UniProt P37231).
T3 construct: expressed in transfected cells; host or cells: COS-1 cells
In words: Gal-4 hPPAR transactivation assay in COS-1 cells (gamma). The class given is cell-based. The conditions noted are these: two values separated by a slash in some cells. How it is done:
as §1

Several values for one entry are separate records, joined by “and”; a condition that tells them apart may be missing. Equal entries are not always repeated.

T3 sequence (P37231 238-503 limits assumed): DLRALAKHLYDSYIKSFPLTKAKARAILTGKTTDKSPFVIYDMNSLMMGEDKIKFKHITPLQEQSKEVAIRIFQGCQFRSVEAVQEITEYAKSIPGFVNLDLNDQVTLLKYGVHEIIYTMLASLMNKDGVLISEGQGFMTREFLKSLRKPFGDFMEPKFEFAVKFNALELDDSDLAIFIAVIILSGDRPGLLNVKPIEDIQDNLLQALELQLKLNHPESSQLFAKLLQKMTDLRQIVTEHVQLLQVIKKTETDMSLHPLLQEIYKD
T3 sequence (P04386 1-147 partner limits assumed): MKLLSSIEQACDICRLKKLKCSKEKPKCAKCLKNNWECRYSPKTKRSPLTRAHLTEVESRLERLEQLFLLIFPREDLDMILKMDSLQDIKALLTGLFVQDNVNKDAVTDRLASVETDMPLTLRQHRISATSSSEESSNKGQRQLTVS
T2 sequence (P04386 1-147 partner limits assumed, one chain of several): as the sequence (P04386 1-147 partner limits assumed) above

Consider `CCCc1cc(Oc2ccccc2)ccc1OCCc1cc2cc(CC(=O)O)ccc2[nH]1` [Compound 2, {2-[2-(4-phenoxy-2-propylphenoxy)ethyl]-1H-indol-5-yl}acetic acid], for which the IC50 in assay [1] is 15 µM. Also, the EC50 on hPPARδ/GAL4 is 3 µM; on hPPARγ/GAL4, 0.18 µM and 0.05 µM. In addition, the “PPAR Activity” value in assay [2] was “Gamma Agonist”.

Usually EC50 stands for the concentration giving half of the maximal effect. A high value points to weaker potency.
